System: human hepatoma Huh-7 cell line harboring a HCV replicon
Assay: HCV replicon assay (inhibition of viral replication, luciferase readout)
Assay type: cell-based
Conditions: Hepatitis C virus, 72 h, Huh-7 HCV replicon cells, 3 days incubation
Summary of the method: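 Read-outs: luciferase luminescence for replication inhibition, corrected by ITMN-191 (100% inhibition) wells, and calcein AM fluorescence for cytotoxicity. Cells were treated for 3 days at 37 °C with ten 3-fold compound dilutions in 0.44% final DMSO. Percent inhibition relative to DMSO was fitted with a Hill equation to give EC50 and CC50.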

Compound	inhibition at 2 µM
CCc1cnc(O[C@H]2CC[C@H](N(c3cc(C#CC(C)(C)C)sc3C(=O)O)C(=O)[C@H]3CC[C@H](C)CC3)CC2)nc1 [Compound 148, 5-(3,3-Dimethylbut-1-ynyl)-3-(N-(4-(5-ethylpyrimidin-2-yloxy)cyclohexyl)-4-methylcyclohexanecarboxamido)thiophene-2-carboxylic acid]	96.6%
CC(C)(C)C#Cc1cc(N(C(=O)[C@H]2CC[C@H](C)CC2)[C@H]2CC[C@H](Oc3cccnc3N3CCCC3)CC2)c(C(=O)O)s1 [Compound 149, 5-(3,3-Dimethylbut-1-ynyl)-3-(4-methyl-N-(4-(2-(pyrrolidin-1-yl)pyridin-3-yloxy)cyclohexyl)cyclohexanecarboxamido)thiophene-2-carboxylic acid]	99%
CC(C)(C)C#Cc1cc(N(C(=O)[C@H]2CC[C@H](C)CC2)[C@H]2CC[C@H](Oc3cc(N4CCCC4)ncn3)CC2)c(C(=O)O)s1 [Compound 150, 5-(3,3-Dimethylbut-1-ynyl)-3-(4-methyl-N-(4-(6-(pyrrolidin-1-yl)pyrimidin-4-yloxy)cyclohexyl)cyclohexanecarboxamido)thiophene-2-carboxylic acid]	99.6%
CN(C)c1nc(O[C@H]2CC[C@H](N(c3cc(C#CC(C)(C)C)sc3C(=O)O)C(=O)[C@H]3CC[C@H](C)CC3)CC2)ncc1F [Compound 151, 3-(N-(4-(4-(Dimethylamino)-5-fluoropyrimidin-2-yloxy)cyclohexyl)-4-methylcyclohexanecarboxamido)-5-(3,3-dimethylbut-1-ynyl)thiophene-2-carboxylic acid]	99.4%
CC(C)(C)C#Cc1cc(N(C(=O)[C@H]2CC[C@H](C)CC2)[C@H]2CC[C@H](Oc3cccc(N4CCCC4)n3)CC2)c(C(=O)O)s1 [Compound 152, 5-(3,3-Dimethylbut-1-ynyl)-3-(4-methyl-N-(4-(6-(pyrrolidin-1-yl)pyridin-2-yloxy)cyclohexyl)cyclohexanecarboxamido)thiophene-2-carboxylic acid]	73.7%
CC(C)(C)C#Cc1cc(N(C(=O)[C@H]2CC[C@H](C)CC2)[C@H]2CC[C@H](Oc3cncc(N4CCCC4)n3)CC2)c(C(=O)O)s1 [Compound 153, 5-(3,3-Dimethylbut-1-ynyl)-3-(4-methyl-N-(4-(6-(pyrrolidin-1-yl)pyrazin-2-yloxy)cyclohexyl)cyclohexanecarboxamido)thiophene-2-carboxylic acid]	100%
Cc1nsc(OC2CCC(N(c3cc(C#CC(C)(C)C)sc3C(=O)O)C(=O)[C@H]3CC[C@H](C)CC3)CC2)n1 (stereo partly drawn) [Compound 154, 5-(3,3-Dimethylbut-1-ynyl)-3-(4-methyl-N-(4-(3-methyl-1,2,4-thiadiazol-5-yloxy)cyclohexyl)cyclohexanecarboxamido)thiophene-2-carboxylic acid]	99.7%
CC(C)(C)C#Cc1cc(N(C(=O)[C@H]2CC[C@H](C)CC2)C2CCC(Oc3nc(CN4CCCC4)cs3)CC2)c(C(=O)O)s1 (stereo partly drawn) [Compound 155, 5-(3,3-Dimethylbut-1-ynyl)-3-(4-methyl-N-(4-(4-(pyrrolidin-1-ylmethyl)thiazol-2-yloxy)cyclohexyl)cyclohexanecarboxamido)thiophene-2-carboxylic acid]	100%
CN(C)Cc1csc(OC2CCC(N(c3cc(C#CC(C)(C)C)sc3C(=O)O)C(=O)[C@H]3CC[C@H](C)CC3)CC2)n1 (stereo partly drawn) [Compound 156, 3-(N-(4-(4-((Dimethylamino)methyl)thiazol-2-yloxy)cyclohexyl)-4-methylcyclohexanecarboxamido)-5-(3,3-dimethylbut-1-ynyl)thiophene-2-carboxylic acid]	100%
CC(C)(C)C#Cc1cc(N(C(=O)[C@H]2CC[C@H](C)CC2)C2CCC(Oc3cc[n+]([O-])cc3)CC2)c(C(=O)O)s1 (stereo partly drawn) [Compound 157, 5-(3,3-Dimethylbut-1-ynyl)-3-(4-methyl-N-(4-(pyridin-4-yloxy-N-oxide)cyclohexyl)cyclohexanecarboxamido)thiophene-2-carboxylic acid]	99.9%
CN(C)c1cc(O[C@H]2CC[C@H](N(c3cc(C#CC(C)(C)C)sc3C(=O)O)C(=O)[C@H]3CC[C@H](C)CC3)CC2)ncn1 [Compound 158, 3-(N-(4-(6-(Dimethylamino)pyrimidin-4-yloxy)cyclohexyl)-4-methylcyclohexanecarboxamido)-5-(3,3-dimethylbut-1-ynyl)thiophene-2-carboxylic acid]	99.9%
CC(C)(C)C#Cc1cc(N(C(=O)[C@H]2CC[C@H](C)CC2)[C@H]2CC[C@H](Oc3ccc(N4CCCC4)nn3)CC2)c(C(=O)O)s1 [Compound 159, 5-(3,3-Dimethylbut-1-ynyl)-3-(4-methyl-N-(4-(6-(pyrrolidin-1-yl)pyridazin-3-yloxy)cyclohexyl)cyclohexanecarboxamido)thiophene-2-carboxylic acid]	99.8%
CN(C)c1ccc(O[C@H]2CC[C@H](N(c3cc(C#CC(C)(C)C)sc3C(=O)O)C(=O)[C@H]3CC[C@H](C)CC3)CC2)nn1 [Compound 160, 3-(N-(4-(6-(Dimethylamino)pyridazin-3-yloxy)cyclohexyl)-4-methylcyclohexanecarboxamido)-5-(3,3-dimethylbut-1-ynyl)thiophene-2-carboxylic acid]	99.9%
CC(C)(C)C#Cc1cc(N(C(=O)[C@H]2CC[C@H](C)CC2)[C@H]2CC[C@H](Oc3nc(CN4CCCC4)ns3)CC2)c(C(=O)O)s1 [Compound 161, 5-(3,3-Dimethylbut-1-ynyl)-3-(4-methyl-N-(4-(3-(pyrrolidin-1-ylmethyl)-1,2,4-thiadiazol-5-yloxy)cyclohexyl)cyclohexanecarboxamido)thiophene-2-carboxylic acid]	99.9%
CC(C)(C)C#Cc1cc(N(C(=O)[C@H]2CC[C@H](C)CC2)[C@H]2CC[C@H](Oc3cncnc3)CC2)c(C(=O)O)s1 [Compound 162, 5-(3,3-Dimethylbut-1-ynyl)-3-(4-methyl-N-(4-(pyrimidin-5-yloxy)cyclohexyl)cyclohexanecarboxamido)thiophene-2-carboxylic acid]	99.9%
CC(C)(C)C#Cc1cc(N(C(=O)[C@H]2CC[C@H](C)CC2)[C@H]2CC[C@H](Oc3ccncn3)CC2)c(C(=O)O)s1 [Compound 163, 5-(3,3-Dimethylbut-1-ynyl)-3-(4-methyl-N-(4-(pyrimidin-4-yloxy)cyclohexyl)cyclohexanecarboxamido)thiophene-2-carboxylic acid]	100%
CC(C)(C)C#Cc1cc(N(C(=O)[C@H]2CC[C@H](C)CC2)[C@H]2CC[C@H](Oc3cc(C(=O)N4CCCC4)ccn3)CC2)c(C(=O)O)s1 [Compound 166, Sodium 5-(3,3-dimethylbut-1-ynyl)-3-(4-methyl-N-(4-(4-(pyrrolidine-1-carbonyl)pyridin-2-yloxy)cyclohexyl)cyclohexanecarboxamido)thiophene-2-carboxylate]	99.9%
CN1CCC(NC(=O)c2ccnc(O[C@H]3CC[C@H](N(c4cc(C#CC(C)(C)C)sc4C(=O)O)C(=O)[C@H]4CC[C@H](C)CC4)CC3)c2)CC1 [Compound 167, Sodium 3-(N-(4-(4-((1-methylpiperidin-4-yl)carbamoyl)pyridin-2-yloxy)cyclohexyl)-4-methylcyclohexanecarboxamido)-5-(3,3-dimethylbut-1-ynyl)thiophene-2-carboxylate]	99.9%
CC(C)(C)C#Cc1cc(N(C(=O)[C@H]2CC[C@H](C)CC2)[C@H]2CC[C@H](Oc3cc(C(=O)N4CCC4)ccn3)CC2)c(C(=O)O)s1 [Compound 168, Sodium 3-(N-(4-(4-(azetidine-1-carbonyl)pyridin-2-yloxy)cyclohexyl)-4-methylcyclohexanecarboxamido)-5-(3,3-dimethylbut-1-ynyl)thiophene-2-carboxylate]	99.9%
CN(C)C1CCN(C(=O)c2ccnc(O[C@H]3CC[C@H](N(c4cc(C#CC(C)(C)C)sc4C(=O)O)C(=O)[C@H]4CC[C@H](C)CC4)CC3)c2)C1 (stereo partly drawn) [Compound 169, Sodium 3-(N-(4-(4-(3-(dimethylamino)pyrrolidine-1-carbonyl)pyridin-2-yloxy)cyclohexyl)-4-methylcyclohexanecarboxamido)-5-(3,3-dimethylbut-1-ynyl)thiophene-2-carboxylate]	100%
CC(C)(C)C#Cc1cc(N(C(=O)[C@H]2CC[C@H](C)CC2)[C@H]2CC[C@H](Oc3ccc(CN4CCCC4=O)cn3)CC2)c(C(=O)O)s1 [Compound 170, Sodium 5-(3,3-dimethylbut-1-ynyl)-3-(4-methyl-N-(4-(5-((2-oxopyrrolidin-1-yl)methyl)pyridin-2-yloxy)cyclohexyl)cyclohexanecarboxamido)thiophene-2-carboxylate]	99.9%
CC(C)(C)C#Cc1cc(N(C(=O)[C@H]2CC[C@H](C)CC2)[C@@H]2CCC(Oc3ccccn3)C(CN3CCCC3)C2)c(C(=O)O)s1 (stereo partly drawn) [Compound 171, Sodium 5-(3,3-dimethylbut-1-ynyl)-3-(4-methyl-N-((1R)-4-(pyridin-2-yloxy)-3-(pyrrolidin-1-ylmethyl)cyclohexyl)cyclohexanecarboxamido)thiophene-2-carboxylate]	99.7%
Cn1nc(O[C@H]2CC[C@@H](N(c3cc(C#CC(C)(C)C)sc3C(=O)O)C(=O)[C@H]3CC[C@H](C)CC3)CC2)ccc1=O [Compound 173, Sodium 5-(3,3-dimethylbut-1-ynyl)-3-(4-methyl-N-(4-(1-methyl-6-oxo-1,6-dihydropyridazin-3-yloxy)cyclohexyl)cyclohexanecarboxamido)thiophene-2-carboxylate]	100%
Cn1nc(O[C@H]2CC[C@H](N(c3cc(C#CC(C)(C)C)sc3C(=O)O)C(=O)[C@H]3CC[C@H](C)CC3)CC2)ccc1=O [Compound 174, 5-(3,3-Dimethylbut-1-ynyl)-3-(4-methyl-N-(4-(1-methyl-6-oxo-1,6-dihydropyridazin-3-yloxy)cyclohexyl)cyclohexanecarboxamido)thiophene-2-carboxylic acid]	100%
